Here are results for 40 compounds from patent publication US9156811B2 (priority 2008, dated 2015).

The test system of assay [1] is Trypanosome (T. brucei brucei). Put plainly: In-vitro antitrypanosomal efficacy assay (cell growth, resazurin). In kind it is cell-based. The following applies: T. brucei cell growth.
Description: To column 12, 200 μl media was added to provide a no cells control. Plates were then incubated at 37° C. in an atmosphere of 5% CO2 for 69 hours, before the addition of 20 μl of 500 μM rezasurin solution, and a further incubation period of 4 hours. […] Concentration effect curves were fitted using non-linear regression using XLFit 4.2 and EC50 values determined.
Assay [2] concerns the target T. brucei N-myristoyl transferase (Trypanosoma brucei brucei (strain 927/4 GUTat10.1), UniProt Q388H8). Put plainly: biochemical. In kind it is biochemical. The following applies: value printed without enzyme tag in the NMT Enzyme column (taken as T. brucei NMT); read-out: IC50 (μM) NMT Enzyme.

Chain of T. brucei N-myristoyl transferase (Q388H8 1-446): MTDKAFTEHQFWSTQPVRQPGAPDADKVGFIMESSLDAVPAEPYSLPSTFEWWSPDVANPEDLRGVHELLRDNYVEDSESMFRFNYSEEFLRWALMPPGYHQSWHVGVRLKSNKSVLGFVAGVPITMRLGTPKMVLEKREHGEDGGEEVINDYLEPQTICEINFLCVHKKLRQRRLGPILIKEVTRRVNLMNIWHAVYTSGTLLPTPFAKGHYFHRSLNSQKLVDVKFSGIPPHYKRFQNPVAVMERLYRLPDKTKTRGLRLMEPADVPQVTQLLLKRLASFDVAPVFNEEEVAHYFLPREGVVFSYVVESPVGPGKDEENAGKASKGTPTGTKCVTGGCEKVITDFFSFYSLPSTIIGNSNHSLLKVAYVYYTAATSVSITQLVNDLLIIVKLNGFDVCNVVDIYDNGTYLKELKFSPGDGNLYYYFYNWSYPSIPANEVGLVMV

Regarding `Cc1nn(C)c(C)c1N[S+](=O)([O-])c1ccc([S+](=O)([O-])N2CCCC2)cc1` [DDD71607], the “ED50 (μM) T. brucei” value in assay [1] is over 1 µM. In addition, the IC50 in assay [2] was over 100 µM.

Take `Cc1cc(C(=O)O)cc([S+](=O)([O-])Nc2c(C)nn(C)c2C)c1C` [DDD71608]: the “ED50 (μM) T. brucei” value in assay [1] was over 1 µM. Moreover, in assay [2], the concentration for half-maximal inhibition (IC50) is over 100 µM.

Turning to `COc1ccc([S+](=O)([O-])Nc2c(C)nn(C)c2C)cc1NC(C)=O` [DDD71622], in assay [1], the “ED50 (μM) T. brucei” value is over 1 µM. Besides, the IC50 in assay [2] stood at 41 µM.

`COc1cc([S+](=O)([O-])Nc2c(C)nn(C)c2C)ccc1NC(C)=O` [DDD71623]: the “ED50 (μM) T. brucei” value in assay [1] was over 1 µM. The concentration for half-maximal inhibition (IC50) in assay [2] came to 42 µM.

Take `COc1cc(C)c([S+](=O)([O-])Nc2cc[nH]n2)c(C)c1C` [DDD71630]: the “ED50 (μM) T. brucei” value in assay [1] was over 1 µM. Further, the IC50 in assay [2] was over 100 µM.

`Cc1nn(C)c(C)c1N[S+](=O)([O-])c1ccc2c(c1)C(C)C(=O)N2` (centres unmarked) [DDD71637]: the “ED50 (μM) T. brucei” value in assay [1] is over 1 µM. Besides, the 50% inhibitory concentration (IC50) in assay [2] stood at 11.7 µM.

For the compound `COc1cc(C)c([S+](=O)([O-])n2ccc(N)n2)c(C)c1C` [DDD71644], the “ED50 (μM) T. brucei” value in assay [1] was over 1 µM. In assay [2], the IC50 is over 100 µM.

With `COc1cc(C)c([S+](=O)([O-])Nc2c(C)cc(C)cc2C)c(C)c1C` [DDD71645], the “ED50 (μM) T. brucei” value in assay [1] was over 1 µM. For the same compound, in assay [2], the IC50 is over 100 µM.

As to `CC(=O)Nc1cc(C)c([S+](=O)([O-])Nc2c(C)nn(C)c2C)s1` [DDD73219], the “ED50 (μM) T. brucei” value in assay [1] is over 1 µM. Also, in assay [2], the IC50 was 69 µM.

Consider `Cc1nn(C)c(C)c1N[S+](=O)([O-])c1sc2ccc(F)cc2c1C` [DDD73221], for which, in assay [1], the “ED50 (μM) T. brucei” value was over 1 µM. In assay [2], the IC50 is 6.6 µM.

Regarding `Cc1nn(C)c(C)c1N[S+](=O)([O-])c1ccc(NCCCO)nc1` [DDD73222], the “ED50 (μM) T. brucei” value in assay [1] was over 1 µM. Besides, the IC50 in assay [2] was 1 µM.

For the compound `Cc1nn(C)c(C)c1N[S+](=O)([O-])c1ccc(CN2CCNC(=O)C2)cc1` [DDD73225], the “ED50 (μM) T. brucei” value in assay [1] was over 1 µM. Moreover, the 50% inhibitory concentration (IC50) in assay [2] is over 100 µM.

`Cc1nn(C)c(C)c1N[S+](=O)([O-])c1ccc(CN2CCCCC2)cc1` [DDD73226]: the “ED50 (μM) T. brucei” value in assay [1] was over 1 µM. Also, in assay [2], the IC50 was over 100 µM.

Take `Cc1nn(C)c(C)c1N[S+](=O)([O-])c1ccc(N2CCc3ccccc3C2)nc1` [DDD73227]: the “ED50 (μM) T. brucei” value in assay [1] was 8.1 µM. The IC50 in assay [2] stood at 0.9 µM.

For `Cc1nn(C)c(C)c1N[S+](=O)([O-])c1ccc(N2CCN(c3ccc(F)cc3)CC2)nc1` [DDD73230], the “ED50 (μM) T. brucei” value in assay [1] is over 1 µM. Further, the concentration for half-maximal inhibition (IC50) in assay [2] stood at 10.7 µM.

Consider `COc1ccc(SCc2ccc([S+](=O)([O-])Nc3c(C)nn(C)c3C)cc2)cc1` [DDD73231], for which, in assay [1], the “ED50 (μM) T. brucei” value was determined as 6.7 µM. Further, the half-inhibitory concentration (IC50) in assay [2] was found to be 0.76 µM.

For `Cc1nn(C)c(C)c1N[S+](=O)([O-])c1ccc(Cn2ccnc2)cc1` [DDD73232], in assay [1], the “ED50 (μM) T. brucei” value came out at 18.6 µM. Moreover, the 50% inhibitory concentration (IC50) in assay [2] turned out to be 1.9 µM.

For `Cc1nn(C)c(C)c1N[S+](=O)([O-])c1ccc(NCc2cccnc2)nc1` [DDD73233], the “ED50 (μM) T. brucei” value in assay [1] was over 1 µM. The half-inhibitory concentration (IC50) in assay [2] amounted to 2.7 µM.

Regarding `Cc1nn(C)c(C)c1N[S+](=O)([O-])c1ccc(N2CCN(C)CC2)nc1` [DDD73236], the “ED50 (μM) T. brucei” value in assay [1] was over 1 µM. For the same compound, the IC50 in assay [2] is 11.9 µM.

For the compound `Cc1nn(C)c(C)c1N[S+](=O)([O-])c1cc([S+](=O)([O-])c2ccccc2)cs1` [DDD73237], the “ED50 (μM) T. brucei” value in assay [1] is over 1 µM. The half-inhibitory concentration (IC50) in assay [2] worked out at 10.4 µM.

`Cc1nn(C)c(C)c1N[S+](=O)([O-])c1ccc(CNC(=O)c2ccccc2)s1` [DDD73238]: the “ED50 (μM) T. brucei” value in assay [1] is 6.9 µM. Besides, the IC50 in assay [2] is 0.63 µM.

Turning to `Cc1nn(C)c(C)c1N[S+](=O)([O-])c1ccc(NCCN2CCOCC2)nc1` [DDD73239], the “ED50 (μM) T. brucei” value in assay [1] was over 50 µM. The IC50 in assay [2] came out at 38.7 µM.

Regarding `Cc1nn(C)c(C)c1N[S+](=O)([O-])c1cccc2c(N(C)C)cccc12` [DDD73240], the “ED50 (μM) T. brucei” value in assay [1] was over 1 µM. In addition, in assay [2], the IC50 turned out to be 1.6 µM.

For the compound `Cc1nn(C)c(C)c1N[S+](=O)([O-])c1ccc([S+](C)(=O)[O-])cc1` [DDD73241], the “ED50 (μM) T. brucei” value in assay [1] was over 1 µM. Also, in assay [2], the half-inhibitory concentration (IC50) is 4.2 µM.

For the compound `Cc1nn(C)c(C)c1N[S+](=O)([O-])c1ccc(-c2cc(C(F)(F)F)n(C)n2)s1` [DDD73242], in assay [1], the “ED50 (μM) T. brucei” value was over 1 µM. Moreover, in assay [2], the IC50 came out at 32 µM.

Regarding `Cc1nn(C)c(C)c1N[S+](=O)([O-])c1ccc(CN2C(=O)CSC2=O)cc1` [DDD73243], the “ED50 (μM) T. brucei” value in assay [1] was over 1 µM. In addition, the half-inhibitory concentration (IC50) in assay [2] stood at 5.8 µM.

`Cc1nn(C)c(C)c1N[S+](=O)([O-])c1ccc(CNCc2ccccc2)cc1` [DDD73265]: the “ED50 (μM) T. brucei” value in assay [1] was over 1 µM. Besides, in assay [2], the half-maximal inhibitory concentration (IC50) came out at 22.5 µM.

Consider `CCCn1ncc(N[S+](=O)([O-])c2c(C)cc(OC)c(C)c2C)n1` [DDD73266], for which, in assay [1], the “ED50 (μM) T. brucei” value was over 1 µM. In addition, the IC50 in assay [2] is over 100 µM.

On to `CCc1ccc(-c2cc(Cl)c([S+](=O)([O-])Nc3c(C)nn(C)c3C)c(Cl)c2)cc1` [DDD73267], for which the “ED50 (μM) T. brucei” value in assay [1] was over 1 µM. Moreover, the IC50 in assay [2] was 44.5 µM.

Regarding `Cc1nn(C)c(C)c1N[S+](=O)([O-])c1c(Cl)cc(-c2ccco2)cc1Cl` [DDD73268], the “ED50 (μM) T. brucei” value in assay [1] was over 1 µM. Besides, in assay [2], the half-inhibitory concentration (IC50) was 3.6 µM.

As for `CCCn1cc(N[S+](=O)([O-])c2c(C)cc(OC)c(C)c2C)nn1` [DDD73269], the “ED50 (μM) T. brucei” value in assay [1] is over 1 µM. The IC50 in assay [2] was over 100 µM.

For `COc1cc(C)c([S+](=O)([O-])Nc2c(C)nn(C)c2N2CCOCC2)c(C)c1C` [DDD73271], the “ED50 (μM) T. brucei” value in assay [1] is over 1 µM. Besides, in assay [2], the concentration for half-maximal inhibition (IC50) is over 100 µM.

Turning to `Cc1nn(C)c(C)c1N[S+](=O)([O-])c1c(Cl)cc(-c2cccc(OCC(C)C)c2)cc1Cl` [DDD73272], the “ED50 (μM) T. brucei” value in assay [1] is over 1 µM. For the same compound, in assay [2], the IC50 came to 35 µM.

For `Cc1nn(C)c(C)c1N[S+](=O)([O-])c1c(Cl)cc(-c2cccc(C(F)(F)F)c2)cc1Cl` [DDD73277], the “ED50 (μM) T. brucei” value in assay [1] is over 1 µM. Further, in assay [2], the concentration for half-maximal inhibition (IC50) came to 40 µM.

`Cc1nn(C)c(C)c1N[S+](=O)([O-])c1c(Cl)cc(-c2cccc3cnccc23)cc1Cl` [DDD73278]: the “ED50 (μM) T. brucei” value in assay [1] is over 1 µM. Moreover, in assay [2], the IC50 was determined as 26.9 µM.

With `Cc1nn(C)c(C)c1N[S+](=O)([O-])c1c(Cl)cc(-c2cccc(C(N)=O)c2)cc1Cl` [DDD73279], the “ED50 (μM) T. brucei” value in assay [1] amounted to 2.1 µM. Moreover, the IC50 in assay [2] turned out to be 1.1 µM.

On to `Cc1nn(C)c(C)c1N[S+](=O)([O-])c1c(Cl)cc(-c2cc3ccccc3o2)cc1Cl` [DDD73280], for which the “ED50 (μM) T. brucei” value in assay [1] was over 1 µM. In addition, the IC50 in assay [2] was 20.7 µM.

Consider `Cc1nn(C)c(C)c1N[S+](=O)([O-])c1ccc(NCc2cccc(N(C)C)c2)nc1` [DDD73320], for which, in assay [1], the “ED50 (μM) T. brucei” value is 16.3 µM. Also, the IC50 in assay [2] amounted to 2.6 µM.

`COc1cc(OC)cc(-c2cc(Cl)c([S+](=O)([O-])Nc3c(C)nn(C)c3C)c(Cl)c2)c1` [DDD73321]: in assay [1], the “ED50 (μM) T. brucei” value was over 1 µM. Further, the IC50 in assay [2] was 4.3 µM.

As for `Cc1nn(C)c(C)c1N[S+](=O)([O-])c1ccc(NC(C)c2ccccc2)nc1` (centres unmarked) [DDD73322], the “ED50 (μM) T. brucei” value in assay [1] was 5.4 µM. Besides, the IC50 in assay [2] came to 0.86 µM.
